Assay results taken from a melting point compilation (Tetko et al.; mined from patent text by program, amines drawn as free bases though some values may be those of a salt).

Row | SMILES | melting point
1 | CCc1ccc(C2CCC(c3ccc(O)cc3)(c3ccc(O)cc3)CC2)cc1 | 187 to 188 °C
2 | O=C(c1nc(NNNc2ccccc2)nc(C(=O)c2ccccc2O)n1)c1ccccc1O | 170 °C
3 | O=C(O)COc1c(Br)cc(C(=O)c2c(Cc3ccccc3)oc3ccccc23)cc1Br | 165 to 167 °C
4 | CC(=O)OC1CCc2cc(N(C(C)=O)S(C)(=O)=O)c(Oc3ccccc3)cc21 (stereo unspecified) | 70 °C
5 | CCOP(=O)(Cc1ccc(C2=NCCO2)cc1)OCC | 65 °C
6 | CC(=O)NC(NC(=O)C(F)(F)F)C(=O)NCc1ccccc1 (stereo unspecified) | 228 to 230 °C
7 | O=C(Oc1ccccc1)N1CCC2(CC1)c1ccccc1Sc1ccccc12 | 149 to 151 °C
8 | CC(C)C(=O)NCC(C)(C)N | 134 to 138 °C
9 | CCCc1nc2c(N)nc3cc(OCc4ccc(C(C)(C)C)cc4)ccc3c2n1CC(C)C | 204 to 205 °C
10 | N#Cc1cc(F)c(-c2ncnc(C(F)(F)F)c2Cl)cc1[N+](=O)[O-] | 90 to 92 °C
11 | Cc1nnc(-c2ccc3occ(-c4ccc(S(C)=O)c(C)c4)c3c2)o1 (stereo unspecified) | 195 to 196 °C
12 | Cc1ccc(S(=O)(=O)N2C3=NC(C)(C)N(C)C(=O)N3c3ccccc32)cc1 | 147 to 149 °C
13 | CCC(CC)C(NS(=O)(=O)c1ccc(Cl)cc1)c1ccnn1-c1ccccc1 (stereo unspecified) | 135 to 136 °C
14 | CCOC(=O)C=Cc1cc(C=CC(=O)OCC)cc(CO)c1 | 68 to 69.5 °C
15 | COCNC(=O)NC1CC(C)(C)N(C)C(C)(C)C1 | 105 °C
16 | O=[S@@]1CCC(c2ccccc2)(c2ccccc2)[C@@H]2CNC[C@@H]21 (racemic) | 192 °C
17 | O=C1NC=C(C(=O)O)CN1 | 139 to 141 °C
18 | O=[N+]([O-])c1ccccc1COc1ccc2ncc3c(c2c1)CCCC3 | 153 to 154 °C
19 | O=C(CCN1CCN(c2ccc(F)cc2)CC1)c1cnn2c1CCCC2 | 141 to 142 °C

Row | SMILES | melting point
20 | Cc1csc(-c2nc3c4ccccc4ccn3c2N)c1 | 152 to 155 °C
21 | Cc1cc(OC2CCN(CCNC(=O)c3ccc(S(C)(=O)=O)cc3)CC2)ccc1Cl | 123 to 124 °C
22 | NCc1nc(-c2ncn3c2[C@@H]2CCN2C(=O)c2cc(F)ccc2-3)no1 | 195 to 198 °C
23 | Clc1ccc2c(c1)N(CC1CN3CCC1CC3)c1ccccc1S2 (stereo unspecified) | 122 °C
24 | NC(=O)Cc1nc(-c2ccccc2)c(-c2ccccc2)o1 | 129 to 133 °C
25 | CON=C(C(=O)OC)c1c(C)cccc1CBr | 76 to 78 °C
26 | [N-]=[N+]=Nc1ccc(Cl)cc1C(=O)c1ccccc1 | 81 to 83 °C
27 | CC(C)CCCC(C)Cc1nc2c3ccsc3c3sccc3c2nc1CC(C)CCCC(C)C (stereo unspecified) | 57.5 to 58.7 °C
28 | CCOc1nc2ccc(Cl)cc2c(-c2ccccc2)c1NC(=O)Nc1ccc(F)cc1F | 238 to 239 °C
29 | CC(C)(C)C(=O)c1c[nH]c2ncc(C3=C(c4ccccc4)CCC3)nc12 | 207 to 209 °C
30 | COc1cc2c(cc1O)CCN(C(=O)c1ccc(C#N)cc1)C2=O | 198 to 199 °C
31 | CCNC(=O)N1N=C(c2ccc(N)cc2)c2cc(Cl)ccc2CC1C (stereo unspecified) | 165 to 167 °C
32 | CC(C)(C)OC(=O)N1CCC(C2=C(C#N)C(c3ccccc3Cl)c3c[nH]nc3N2)CC1 (stereo unspecified) | > 280 °C
33 | Cc1ccc(C)c(OCc2ccccc2C(C#N)=NOC(F)F)c1 | 104 to 108 °C
34 | CCCCCCC(O)CCCCCCCCCCC(=O)NCCNCCO (stereo unspecified) | 102 °C
35 | CCCc1c(OCCCCCOc2ccc3nc(CCC(=O)O)ccc3c2CCC(=O)O)ccc2c1OCCC2=O | 123 to 128 °C
36 | CCCCOc1nc(N)c2nc(OC)n(CCS(=O)(=O)c3cccc(CC(=O)OC)c3)c2n1 | 246 to 247 °C
37 | COC(=O)C1(N(C)C(=O)Cc2c(C)cc(C)cc2C)CCN(OC)CC1 | 133 to 135 °C
38 | COC(=O)Cn1sc2nc(C)cc(C)c2c1=O | 89 to 91 °C

Row | SMILES | melting point
39 | COc1cc(OC)nc(Oc2cccc(Cl)c2C(=O)ON(C)C)n1 | 80 to 81 °C
40 | CC(=O)Nc1cccc2cccc(N=[N+]=[N-])c12 | 148 to 149 °C
41 | Cc1noc(C)c1Cn1nnnc1-c1cccc(Cl)c1Cl | 176 to 178 °C
42 | CC(C)CNc1nc(-c2ccccc2)c(Cl)n2c(-c3ccc(C(=O)NC4CC4)cc3)cnc12 | 180 °C
43 | COc1ccc(CC2NC(=O)NC2=O)cc1CCc1ccccc1 (stereo unspecified) | 147 to 149 °C
44 | COC(CNc1ccc(C(O)(C(F)(F)F)C(F)(F)F)cc1)OC | 72 to 74 °C
45 | CCN(CC)C(=O)OC12Oc3cc(C(C)C)ccc3C1(O)C(=O)c1ccccc12 (stereo unspecified) | 127 to 130 °C
46 | Cc1ccc(C(=O)N2CCC(c3ccccc3)=N2)cn1 | 86 to 87 °C
47 | COC(=O)C1=C(C)NC(C)=C(C(C)=O)C1c1ccccc1Br (stereo unspecified) | 146 to 148 °C
48 | O=C1NC(OC(=O)c2ccccc2)C2=C1c1ccc(Cl)cc1C(c1ccccc1Cl)=NC2 (stereo unspecified) | 140 to 142 °C
49 | CCOC(=O)NCC(=O)c1ccc(OCC(=O)NCCN2CCOCC2)cc1 | 133 to 135 °C
50 | Cc1cc(C)c(/C=C/[C@@H](O)C[C@@H](O)CC(=O)OCOC(=O)C(C)(C)C)c(-c2ccc(F)c(C)c2)c1 | 97 to 98 °C
51 | COC(=O)c1ccc(SC)c(OC(C)C)c1 | 41 to 43 °C
52 | COc1ccc2[nH]cc(CC(=O)N3CCN(c4ccc(NC(=N)c5cccs5)cc4)CC3)c2c1 | 221 to 222 °C
53 | Cc1cccc(C)c1N(CCCCCCc1cccnc1)C(=O)C(C)N1C(=O)c2ccccc2C1=O (stereo unspecified) | 113 to 115 °C
54 | CC(C)(S)C1COC(=O)N1 (stereo unspecified) | 124 to 126 °C
55 | CCCCCC(=O)NC[C@H](O)CC(=O)NN | 172 °C
56 | COc1ccc(C(C)(C)C)c(O)c1C(=O)Oc1ccccc1 | 74 to 75 °C

Results, then the compound that gave them:

Row | melting point | SMILES
57 | 148 to 151 °C | O=CNCCSc1ccc2nccn2n1
58 | 75 to 78 °C | Cc1cc(CC#N)cc(CC#N)c1
59 | 52 to 54 °C | O=C1NC(=O)C(N(Cc2ccc(Br)cc2)c2ccc(CCNCC(O)COc3ccccc3)cc2)S1 (stereo unspecified)
60 | 157 to 158 °C | COC(=O)c1cc(OC)cc(-c2ccc(N(C)C)cc2)n1
61 | 160 °C | c1ccc(C2=NN=C(N3CCSCC3)SC2)cc1
62 | 106 to 108 °C | O=c1cc(N2CCCCC2)sn1CCc1ccccc1
63 | 101 to 102 °C | O=C(NCCCS(=O)c1ccncc1)c1cccs1 (stereo unspecified)
64 | 113 to 115 °C | O=C(/C=C/C=C(c1ccccc1)c1ccccc1)Oc1ccc([N+](=O)[O-])cc1
65 | 158 to 161 °C | CC(CS(=O)(=O)c1ccccc1)C1CCC2C3CC=C4CC(O)CCC4(C)C3CCC12C (stereo unspecified)
66 | 120 to 121 °C | O=c1oc(-c2ccc(Sc3ccccc3)cc2)cc(O)c1SCCc1ccccc1
67 | 216 to 219 °C | O=c1c2c(Cc3ccc(C(F)(F)F)cc3)n[nH]c2c2cccnc2n1-c1ccccc1
68 | 101 to 104 °C | COc1cccc(-c2ccc3c(c2)C2(CCCCC2)C(=NOCc2ccccc2)N3)c1
69 | 179 to 180 °C | CC(C)(C(=O)OCC(=O)c1ccccc1)n1c(=O)[nH]c2cccc(F)c2c1=O
70 | 281 to 282 °C | CC(=O)Nc1cnc(-c2ccccc2)[nH]c1=O
71 | 101 °C | COC(=O)C(=CN(C)C)N(C)c1cccc(-c2ccc(Cl)cc2)n1
72 | 118 to 120 °C | CCCSc1ncc(CC(C(=O)O)C(=O)OCC)n1Cc1ccccc1Cl (stereo unspecified)
73 | 66 to 67 °C | O=C(O)C(Cc1ccccc1)C(O)CCCCCOCc1ccccc1 (stereo unspecified)
74 | 99 to 102 °C | CN1CCN(C)C(c2ccc([N+](=O)[O-])cc2)C1=O (stereo unspecified)
75 | 100 to 101 °C | COC(=O)CCc1ccc(OCc2cccc(/C=C/c3ccccc3)c2)cc1
76 | 78 to 79.5 °C | CC(C)(C)NC(=O)c1ccccc1O
77 | 345 °C | COc1ccc(S(N)(=O)=O)cc1N=Nc1c(O)c(O)c(N=Nc2cc(S(N)(=O)=O)ccc2OC)c2ccccc12
78 | 178 to 179 °C | CSc1cc(C(F)(F)F)ccc1C(=O)O
79 | 82 to 83 °C | ClCCCOc1ccc(/C=C/c2nc3ccccc3o2)cc1

Row | melting point | SMILES
80 | 124 °C | Cc1ccc(OCc2ccccc2[N+](=O)[O-])c(C=O)c1
81 | 181 to 183 °C | COc1cc(N)c(Cl)cc1C(=O)CC(O)c1ccncc1 (stereo unspecified)
82 | 130 to 132 °C | Cc1ccc(-c2nc(Cl)nc(Cl)c2-c2ccccc2)cc1
83 | 334 to 337 °C | Cc1nc(C)n(-c2cc(C)c3[nH]c(=O)ccc3c2)c1C#N
84 | 204 °C | Cc1cccc(COc2ccc(-c3ccc(C(=O)NC(Cc4ccccc4)C(=O)O)cc3)cc2)c1 (stereo unspecified)
85 | 79 °C | CC(=O)OCCn1ncc(-c2ncc([N+](=O)[O-])n2C)c1C
86 | 84 to 86 °C | CCOC(=O)Cc1cc(C)c(C(=O)c2ccc(F)cc2)n1C
87 | 55 to 57 °C | N#CC1(c2ccc(OCc3ccc(F)cc3)c(OC3CCCC3)c2)CCC(=NO)CC1 (stereo unspecified)
88 | 174 to 175 °C | COc1cc(-c2ccccc2)c(C=O)cc1CC(=O)O
89 | 137 to 138 °C | O=C1CC(Cc2ccncc2)(Cc2ccncc2)C(=O)N1C12CC3CC(CC(C3)C1)C2
90 | 262 to 263 °C | CC1(C)OC(=O)Nc2ccc(-c3coc(C=O)c3)cc21
91 | 125 °C | CN(CC1CCN(CC2COc3ccccc3O2)CC1)c1nc2ccccc2s1 (stereo unspecified)
92 | 112 to 114 °C | Cc1ccc(S(=O)(=O)N2CCC(Sc3ccc(Cl)cc3)CC2)cc1
93 | 99 to 100 °C | CN(O)C(=O)NCCc1ccc2c(c1)OCO2
94 | 174 to 175 °C | O=C(NCc1ccccc1)N1CC(Oc2cccc(C(F)(F)F)c2)C1
95 | 148 to 150 °C | CCCCC(=O)OCC(=O)C1(OC(C)=O)CCC2C3CC(C)C4=CC(=O)C=CC4(C)C3C(O)CC21C (stereo unspecified)
96 | 110 to 111 °C | NC(=O)c1ccc(OCCN(Cc2ccccc2)CC(O)c2ccc(OCc3ccccc3)c(OCc3ccccc3)c2)cc1 (stereo unspecified)
97 | 200 to 201 °C | CCCCc1nc(C(C)O)c(C#N)n1Cc1ccc(-c2ccccc2C(=O)O)cc1 (stereo unspecified)
98 | 186 °C | CC(C)C(Cl)C(=O)Nc1c(C(=O)CC(=O)Nc2nccs2)cccc1C(F)(F)F (stereo unspecified)
99 | 115 to 117 °C | CC(=O)c1c(-c2ccc(OCCBr)c3ccccc23)oc2ccccc12
100 | > 250 °C | O=C1NCCn2c1nc1c2CCCC1
101 | 158 to 159 °C | Cc1cc(F)cc(Oc2ccc([C@@H]3CCCN4CCS(=O)(=O)N=C34)cc2)c1
